ChEMBL document CHEMBL1201862, “PubChem BioAssay data set” (2004)
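A five-concentration, 48-hour dose response in 96-well plates underlies each endpoint, interpolated linearly between surrounding concentrations. Here, GI50 denotes the concentration required for 50% inhibition of growth.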 Active and inactive are the calls of the source. Rule as the data show it: active = GI50 up to about 1.1 µM and inactive = higher.

Tests used:
Assay in all cases: NCI anticancer screen, dose series, 48 h
[1] = system: NCI-H460
[2] = system: HOP-62
[3] = system: MOLT-4
[4] = system: LOX IMVI
[5] = system: SW-620
[6] = system: OVCAR-5
[7] = system: M14
[8] = system: DU-145
[9] = system: UACC-62
[10] = system: NCI/ADR-RES
[11] = system: COLO 205
[12] = system: MDA-N
[13] = system: SK-MEL-28
[14] = system: TK-10
[15] = system: HOP-92
[16] = system: UO-31
[17] = system: SR
[18] = system: NCI-H522
[19] = system: ACHN
[20] = system: HL-60

Measured: GI50

Oc1ccc(-c2nn3c(CCCCCCCCc4nnc5sc(-c6ccc(O)cc6)nn45)nnc3s2)cc1
inactive: [1] > 100 µM | [2] > 100 µM | [3] 95.7 µM | [4] > 100 µM | [5] > 100 µM | [6] > 100 µM | [7] > 100 µM | [8] > 100 µM | [9] > 100 µM | [10] > 100 µM | [11] > 100 µM | [12] > 100 µM | [13] > 100 µM | [14] > 100 µM | [15] > 100 µM | [16] > 100 µM | [17] > 100 µM | [18] > 100 µM | [19] > 100 µM

COc1cc2oc(=O)cc(C)c2cc1OC
inactive: [2] > 100 µM | [3] > 100 µM | [4] > 100 µM | [5] > 100 µM | [6] > 100 µM | [7] > 100 µM | [8] > 100 µM | [9] > 100 µM | [10] > 100 µM | [11] > 100 µM | [12] > 100 µM | [13] > 100 µM | [14] > 100 µM | [16] 66.7 µM | [17] > 100 µM | [19] > 100 µM

C=C(C)C(O)C(O)c1c(OC)ccc2ccc(=O)oc12 (centres undefined)
inactive: [1] > 100 µM | [2] > 100 µM | [3] > 100 µM | [5] > 100 µM | [6] > 100 µM | [7] > 100 µM | [8] > 100 µM | [9] > 100 µM | [10] > 100 µM | [11] > 100 µM | [20] > 100 µM | [12] > 100 µM | [13] > 100 µM | [14] > 100 µM | [15] > 100 µM | [16] > 100 µM | [17] > 100 µM | [18] > 100 µM | [19] > 100 µM

COc1ccc2c(c1)SC1=Nc3sc4cc(OC)ccc4[n+]3CN12
inactive: [1] 17.2 µM | [2] 49.8 µM | [3] 4.62 µM | [5] 35.7 µM | [6] 96.2 µM | [7] 33.1 µM | [8] 29 µM | [9] 11.7 µM | [10] 99.3 µM | [11] 2.96 µM | [20] 9.29 µM | [12] 26.1 µM | [14] 51.4 µM | [15] 2.23 µM | [16] 53 µM | [17] 5.83 µM | [18] 1.38 µM | [19] 49.8 µM

Cc1ncc([N+](=O)[O-])n1CCNC(=O)Cn1ccnc1[N+](=O)[O-]
inactive: [1] > 100 µM | [2] > 100 µM | [3] > 100 µM | [5] > 100 µM | [6] > 100 µM | [7] > 100 µM | [8] > 100 µM | [9] > 100 µM | [10] > 100 µM | [11] > 100 µM | [20] > 100 µM | [12] > 100 µM | [13] > 100 µM | [14] > 100 µM | [16] > 100 µM | [17] > 100 µM | [18] > 100 µM | [19] > 100 µM

O=C1C[C@H]2[C@@H](O1)[C@@H](O)CN1C(=O)c3ccccc3[C@H]21
inactive: [1] > 100 µM | [2] > 100 µM | [3] > 100 µM | [4] > 100 µM | [5] > 100 µM | [6] > 100 µM | [7] > 100 µM | [8] > 100 µM | [9] > 100 µM | [10] > 100 µM | [11] > 100 µM | [12] > 100 µM | [13] > 100 µM | [14] > 100 µM | [16] > 100 µM | [17] > 100 µM | [18] > 100 µM | [19] > 100 µM

CCOC(=O)Nc1cc(NC(/C=N/NC(C)=O)C(=O)OCC)c(OC)cc1NC(C)=O (centres undefined)
inactive: [1] > 100 µM | [2] > 100 µM | [3] > 100 µM | [5] > 100 µM | [6] > 100 µM | [7] > 100 µM | [8] > 100 µM | [9] > 100 µM | [10] > 100 µM | [11] > 100 µM | [12] > 100 µM | [13] > 100 µM | [14] > 100 µM | [15] > 100 µM | [16] > 100 µM | [17] > 100 µM | [19] > 100 µM

C=CCNS(=O)(=O)c1ncnc2[nH]cnc12
inactive: [2] > 100 µM | [3] 14.2 µM | [4] 67.9 µM | [5] > 100 µM | [6] > 100 µM | [7] > 100 µM | [8] > 100 µM | [9] > 100 µM | [10] > 100 µM | [11] > 100 µM | [12] 82.8 µM | [13] > 100 µM | [14] > 100 µM | [15] 5.75 µM | [16] > 100 µM | [17] 69.8 µM | [18] > 100 µM | [19] > 100 µM

COC(=O)c1ccc(C)cc1CC1Cc2cc(C)ccc2C1=O (centres undefined)
inactive: [1] > 100 µM | [2] > 100 µM | [3] > 100 µM | [4] > 100 µM | [5] > 100 µM | [6] > 100 µM | [7] > 100 µM | [8] > 10 µM | [9] > 100 µM | [10] > 100 µM | [11] > 100 µM | [20] > 100 µM | [12] > 100 µM | [13] > 100 µM | [14] > 100 µM | [16] > 100 µM | [17] > 100 µM | [18] > 100 µM | [19] > 100 µM

Cc1cc(=O)oc2cc(O)c(CN(C)CC(=O)O)cc12
inactive: [1] > 100 µM | [4] > 100 µM | [5] > 100 µM | [6] > 100 µM | [7] > 100 µM | [8] > 100 µM | [9] > 100 µM | [10] > 100 µM | [11] > 100 µM | [20] > 100 µM | [12] > 100 µM | [13] > 100 µM | [14] > 100 µM | [15] > 100 µM | [16] > 100 µM | [17] > 100 µM | [18] > 100 µM | [19] > 100 µM

CCN(CC)/C(SCc1ccccc1)=C(\C(Cl)=C(Cl)Cl)[N+](=O)[O-]
inactive: [1] 22.3 µM | [2] 22 µM | [3] 13.5 µM | [4] 14.1 µM | [5] 21.8 µM | [6] 17.9 µM | [7] 15.9 µM | [8] 18 µM | [9] 3.87 µM | [10] 17.1 µM | [11] 17.6 µM | [20] 15.8 µM | [12] 16.4 µM | [13] 15.9 µM | [14] 19.2 µM | [16] 18.3 µM | [17] 17.8 µM | [18] 16.6 µM | [19] 16.3 µM
